Source: patent publication US6855730B2, “3-methylidenyl-2-indolinone modulators of protein kinase” (Sugen, Inc., priority 1998, dated 2005)

Molecular target: EGFR (Homo sapiens, UniProt P00533)
Assay: EGFR assay (cellular ELISA, NIH 3T3/C7 cells)
Format: cell-based
Parameters: expressed in transfected cells; host or cells: NIH 3T3/C7
Details: read-out: cell EGF IC50
Experimental: EGF Receptor kinase activity in cells genetically engineered to express human EGF-R can be measured as described below:
Materials and Reagents. • a. […] 05-101 (UBI) (a monoclonal antibody recognizing an EGFR extracellular domain). • c. Anti-phosphotyosine antibody (anti-Ptyr) (polyclonal). • d. Detection antibody: Goat anti-rabbit IgG horse radish peroxidase conjugate, TAGO, Inc. Burlingame, Calif. • e. TBST buffer:
• Keep solution in dark at 4° C. until used. • h. Stock reagents of:
Pre-coat ELISA Plate • 1. […] Coated plates are good for up to 10 days when stored at 4° C. • 2. On day-of use, remove coating buffer and replace with blocking buffer (5% Carnation Instant NonFat Dry Milk in PBS). Incubate the plate, shaking, at room temperature (about 23° C. to 25° C.) for 30 minutes. Just prior to use, remove blocking buffer and wash plate 4 times with TBST buffer.
Seeding Cells • 1. […] Choose dishes having 80-90% confluence for the experiment. Trypsinize cells and stop reaction by adding 10% CS DMEM medium. Suspend cells in DMEM medium (10% CS DMEM medium) and centrifuge once at 1000 rpm at room temperature for 5 minutes. • 3. Resuspend cells in seeding medium (DMEM, 0.5% bovine serum), and count the cells using trypan blue. Viability above 90% is acceptable. Seed cells in DMEM medium (0.5% bovine serum) at a density of 10,000 cells per well, 100 μl per well, in a 96 well microtiter plate. Incubate seeded cells in 5% CO2 at 37° C. for about 40 hours.
Assay Procedures. • 1. Check seeded cells for contamination using an inverted microscope. Dilute test compounds stock (10 mg/ml in DMSO) 1:10 in DMEM medium, then transfer 5 μl to a test well for a test compounds drug dilution of 1:200 and a final DMSO concentration of 1%. Control wells receive DMSO alone. Incubate in 5% CO2 at 37° C. for one hour. • 2. Prepare EGF ligand: dilute stock EGF in DMEM so that upon transfer of 10 μl dilute EGF (1:12 dilution), 25 nM final concentration is attained. • 3. Prepare fresh 10 ml HNTG* sufficient for 100 μl per well wherein HNTG* comprises: HNTG stock (2.0 ml), milli-Q H2O (7.3 ml), EDTA, 100 mM, pH 7.0 (0.5 ml), Na3VO4 0.5 M (0.1 ml) and Na4(P2O7), 0.2 M (0.1 ml). • 4. Place on ice. • 5. After two hours incubation with drug, add prepared EGF ligand to cells, 10 μl per well, to yield a final concentration of 25 nM. Control wells receive DMEM alone. Incubate, shaking, at room temperature, for 5 minutes. • 6. Remove test compound, EGF, and DMEM. Wash cells twice with PBS. Transfer HNTG* to cells, 100 μl per well. Place on ice for 5 minutes. Meanwhile, remove blocking buffer from other ELISA plate and wash with TBST as described above. • 7. With a pipette tip securely fitted to a micropipettor, scrape cells from plate and homogenize cell material by repeatedly aspirating and dispensing the HNTG* lysis buffer. Transfer lysate to a coated, blocked, and washed ELISA plate. Incubate shaking at room temperature for one hour. • 8. Remove lysate and wash 4 times with TBST. Transfer freshly diluted anti-Ptyr antibody to ELISA plate at 100 μl per well. Incubate shaking at room temperature for 30 minutes in the presence of the anti-Ptyr antiserum (1:3000 dilution in TBST). • 9. Remove the anti-Ptyr antibody and wash 4 times with TBST. Transfer the freshly diluted TAGO 30 anti-rabbit IgG antibody to the ELISA plate at 100 μl per well. Incubate shaking at room temperature for 30 minutes (anti-rabbit IgG antibody: 1:3000 dilution in TBST). • 10. Remove detection antibody and wash 4 times with TBST. Transfer freshly prepared ABTS/H2O2 solution to ELISA plate, 100 μl per well. Incubate at room temperature for 20 minutes. ABTS/H2O2 solution: 1.2 μl 30% H2O2 in 10 ml ABTS stock. • 11. Stop reaction by adding 50 μl 5N H2SO4 (optional), and determine O.D. at 410 nm. • 12. The maximal phosphotyrosine signal is determined by subtracting the value of the negative controls from the positive controls. […]

Chain of EGFR (P00533 25-1210): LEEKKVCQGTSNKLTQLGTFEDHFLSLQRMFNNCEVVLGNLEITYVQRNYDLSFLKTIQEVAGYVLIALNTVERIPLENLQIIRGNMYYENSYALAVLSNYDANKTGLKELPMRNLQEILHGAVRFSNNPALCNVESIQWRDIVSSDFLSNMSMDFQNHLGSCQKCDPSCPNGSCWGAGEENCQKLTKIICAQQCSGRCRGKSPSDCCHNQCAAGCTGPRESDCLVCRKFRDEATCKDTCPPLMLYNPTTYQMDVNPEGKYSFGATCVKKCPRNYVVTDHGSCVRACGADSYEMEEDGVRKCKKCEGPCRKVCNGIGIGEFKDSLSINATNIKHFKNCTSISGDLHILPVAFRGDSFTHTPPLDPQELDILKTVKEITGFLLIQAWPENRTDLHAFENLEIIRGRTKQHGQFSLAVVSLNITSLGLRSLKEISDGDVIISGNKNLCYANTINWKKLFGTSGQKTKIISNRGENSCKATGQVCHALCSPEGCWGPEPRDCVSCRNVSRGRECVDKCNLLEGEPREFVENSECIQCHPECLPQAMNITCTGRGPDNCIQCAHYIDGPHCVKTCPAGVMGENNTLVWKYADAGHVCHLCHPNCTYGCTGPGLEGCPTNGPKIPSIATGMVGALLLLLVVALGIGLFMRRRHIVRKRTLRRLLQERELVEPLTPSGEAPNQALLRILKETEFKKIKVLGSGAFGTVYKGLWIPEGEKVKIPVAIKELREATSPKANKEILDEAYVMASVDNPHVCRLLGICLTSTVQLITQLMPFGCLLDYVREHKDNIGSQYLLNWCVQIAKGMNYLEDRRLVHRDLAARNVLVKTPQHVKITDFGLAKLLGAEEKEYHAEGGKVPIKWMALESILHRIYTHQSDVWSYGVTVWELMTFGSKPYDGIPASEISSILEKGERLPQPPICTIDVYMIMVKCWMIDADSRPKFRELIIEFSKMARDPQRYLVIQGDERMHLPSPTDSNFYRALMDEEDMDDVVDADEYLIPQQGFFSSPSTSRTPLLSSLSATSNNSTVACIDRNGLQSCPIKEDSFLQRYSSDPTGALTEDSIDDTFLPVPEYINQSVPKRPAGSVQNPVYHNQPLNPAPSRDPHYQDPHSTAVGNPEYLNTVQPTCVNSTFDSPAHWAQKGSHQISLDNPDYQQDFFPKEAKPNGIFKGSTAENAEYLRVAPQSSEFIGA

| SMILES | IC50 [µM] |
| --- | --- |
| COc1c(C(C)C)cc(/C=C2/C(=O)Nc3cc(O)ccc32)cc1C(C)C [Example 4, 3-(3,5-Diisopropyl-4-methoxybenzylidene)-6-hydroxy-1,3-dihydroindol-2-one] | 20.1 |
| COc1ccc(/C=C2/C(=O)Nc3ccc(Br)cc32)cc1-c1ccccc1 [Example 13, 5-Bromo-3-(6-methoxybiphenyl-3-ylmethylene)-1,3-dihydroindol-2-one] | 30.8 |
| COc1ccc(/C=C2/C(=O)Nc3ccccc32)cc1C(C)C [Example 7, 3-(3-Isopropyl-4-methoxybenzylidene)-1,3-dihydroindol-2-one] | 40.4 |
| COc1ccc(/C=C2/C(=O)Nc3ccccc32)cc1C1CCCC1 [Example 10, 3-(3-Cyclopentyl-4-methoxybenzylidene)-1,3-dihydroindol-2-one] | 56.1 |
| COc1c(C(C)C)cc(/C=C2/C(=O)Nc3cc(NC(=O)OC(C)(C)C)ccc32)cc1C(C)C [Example 52, [3-(3,5-Diisopropyl-4-methoxybenzylidene)-2-oxo-2,3-dihydro-1H-indol-6-yl]-carbamic acid tert-butyl ester] | > 100 |
| COc1c(C)cc(/C=C2/C(=O)Nc3ccc(Cl)cc32)cc1C [Example 21, 5-Chloro-3-(4-methoxy-3,5-dimethylbenzylidene)-1,3-dihydroindol-2-one] | 18.5 |
| COc1cc(C)c(C=C2C(=O)Nc3ccc(Cl)cc32)cc1C(C)C [Example 9, 5-Chloro-3-(5-isopropyl-4-methoxy-2-methylbenzylidene)-1,3-dihydroindol-2-one] | 34.6 |
| COc1c(C(C)C)cc(/C=C2\C(=O)Nc3cccc(C)c32)cc1C(C)C [Example 53, 3-(3,5-Diisopropyl-4-methoxybenzylidene)-4-methyl-1,3-dihydroindol-2-one] | 85 |
| COc1ccc(/C=C2/C(=O)Nc3ccc(F)cc32)cc1C(C)C [Example 44, 5-Fluoro-3-(3-isopropyl-4-methoxybenzylidene)-1,3-dihydroindol-2-one] | 76.9 |
| CC(=O)Nc1ccc2c(c1)NC(=O)/C2=C\c1ccc2c(c1)CCC(C)(C)O2 [Example 33, N-[3-(2,2-Dimethylchroman-6-ylmethylene)-2-oxo-2,3-dihydro-1H-indol-6-yl]-acetamide] | 53.2 |
| O=C1Nc2ccc(Cl)cc2/C1=C\c1ccc2c(c1)CCO2 [Example 14, 5-Chloro-3-(2,3-dihydro-benzofuran-5-ylmethylene)-1,3-dihydroindol-2-one] | > 100 |
| COc1ccc(/C=C2/C(=O)Nc3ccc(F)cc32)cc1C1CCCCC1 [Example 43, 3-(3-Cyclohexyl-4-methoxybenzylidene)-5-fluoro-1,3-dihydroindol-2-one] | > 100 |
| COc1ccc(/C=C2/C(=O)Nc3ccc(F)cc32)cc1-c1ccccc1 [Example 37, 5-Fluoro-3-(6-methoxybiphenyl-3-ylmethylene)-1,3-dihydroindol-2-one] | > 100 |
| CC1(C)CCc2cc(C=C3C(=O)Nc4ccc(Br)cc43)ccc2O1 (racemic) [Example 34, 5-Bromo-3-(2,2-dimethylchroman-6-ylmethylene)-1,3-dihydroindol-2-one] | 38.2 |
| CC(=O)Nc1ccc2c(c1)NC(=O)/C2=C/c1ccc(OCCN2CCOCC2)c(C2CCCCC2)c1 [Example 16, N-{3-[3-Cyclohexyl-4-(2-morpholin-4-ylethoxy)-benzylidene]-2-oxo-2,3-dihydro-1H-indol-6-yl}-acetamide] | 44.5 |
| COc1ccc(/C=C2/C(=O)Nc3ccccc32)cc1C1CCCCC1 [Example 12, 3-(3-Cyclohexyl-4-methoxybenzylidene)-1,3-dihydroindol-2-one] | 71.9 |
| COc1cc(C)c(/C=C2/C(=O)Nc3ncccc32)cc1C(C)C [Example 45, 3-(5-Isopropyl-4-methoxy-2-methylbenzylidene)-1,3-dihydro-pyrrolo[2,3-b]pyridin-2-one] | > 100 |
| COc1cc(/C=C2/C(=O)Nc3ccccc32)c(-c2cccs2)cc1OC [Example 39, 3-(4,5-Dimethoxy-2-thiophen-2-ylbenzylidene)-1,3-dihydroindol-2-one] | > 100 |
| COc1ccc(/C=C2/C(=O)Nc3ccc(F)cc32)cc1C1CCCC1 [Example 11, 3-(3-Cyclopentyl-4-methoxybenzylidene)-5-fluoro-1,3-dihydroindol-2-one] | 72.9 |
| COc1ccc(/C=C2/C(=O)Nc3ccc(Cl)cc32)cc1C1CCCCC1 [Example 51, 5-Chloro-3-(3-cyclohexyl-4-methoxybenzylidene)-1,3-dihydroindol-2-one] | > 100 |

Continued, values first:

| IC50 [µM] | SMILES |
| --- | --- |
| > 100 | COc1ccc(C=C2C(=O)Nc3cc(NC(C)=O)ccc32)cc1-c1cccc(NC(C)=O)c1 (mixture of isomers) [Example 63, N-[3-(3′-Acetylamino-6-methoxybiphenyl-3-ylmethylene)-2-oxo-2,3-dihydro-1H-indol-6-yl]-acetamide] |
| > 100 | COc1cc(/C=C2/C(=O)Nc3ccccc32)c(-c2ccc3ccccc3c2)cc1OC [Example 62, 3-(4,5-Dimethoxy-2-naphthalen-2-ylbenzylidene)-1,3-dihydroindol-2-one] |
| > 100 | COc1ccc2c(c1)NC(=O)/C2=C/c1ccc(OC)c(-c2ccsc2)c1 [Example 64, 6-Methoxy-3-(4-methoxy-3-thiophen-3-ylbenzylidene)-1,3-dihydroindol-2-one] |
| > 50 | O=C1Nc2ncccc2/C1=C\c1ccc2c(c1)CCO2 [Example 73, 3-(2,3-Dihydrobenzofuran-5-ylmethylene)-1,3-dihydropyrrolo[2,3-b]pyridin-2-one] |
| > 100 | COc1ccc(/C=C2/C(=O)Nc3ccc(Cl)cc32)cc1-c1cccs1 [Example 59, 5-chloro-3-(4-Methoxy-3-thiophen-2-ylbenzylidene)-1,3-dihydroindol-2-one] |
| > 100 | COc1ccc(/C=C2/C(=O)Nc3ccccc32)cc1-c1ccccc1 [Example 65, 3-(6-Methoxybiphenyl-3-ylmethylene)-1,3-dihydroindol-2-one] |
| > 100 | COc1cccc(-c2cc(OC)c(OC)cc2/C=C2/C(=O)Nc3ccc(Cl)cc32)c1 [Example 61, 5-Chloro-3-(4,5-3′-Trimethoxybiphenyl-2-ylmethylene)-1,3-dihydroindol-2-one] |
| > 100 | CCOc1cccc(-c2cc(OC)c(OC)cc2/C=C2/C(=O)Nc3ccccc32)c1 [Example 58, 3-(3′-Ethoxy-4,5-dimethoxybiphenyl-2-ylmethylene)-1,3-dihydroindol-2-one] |
| > 100 | Cc1cc(CCC(=O)O)c(/C=C2\C(=O)Nc3cc(-c4ccc(F)cc4)ccc32)[nH]1 [Example 107, 3-{2-[6-(4-Fluorophenyl)-2-oxo-1,2-dihydroindol-3-ylidenemethyl]-5-methyl-1H-pyrrol-3-yl}propionic acid] |
| > 100 | COc1c(C)cc(/C=C2/C(=O)Nc3ncccc32)cc1C [Example 56, 3-(4-Methoxy-3,5-dimethylbenzylidene)-1,3-dihydropyrrolo[2,3-b]pyridin-2-one] |
| > 100 | Cc1cccc2c1/C(=C/c1cc3ccccc3[nH]1)C(=O)N2 [Example 166, 3-(1H-indol-2-ylmethylene)-4-methyl-1,3-dihydro-indol-2-one] |
| > 100 | Cc1cccc2c1/C(=C/c1ccc3c(c1)CCO3)C(=O)N2 [Example 69, 3-(2,3-Dihydrobenzofuran-5-ylmethylene)-4-methyl-1,3-dihydroindol-2-one] |
